Source: patent US20160045528A1, “COMBINATION THERAPY FOR TREATING A PARAMYXOVIRUS” (priority 2014, published 2016)

System: RSV subgenomic replicon 395 HeLa
Test: RSV replicon assay (Renilla luciferase, 395 HeLa replicon cells)
Format: cell-based
Conditions: human respiratory syncytial virus, 168 h
Description: The RSV subgenomic replicon 395 HeLa was licensed from Apath (Brooklyn, N.Y.) and was originally developed by Dr. Mark Meeples of Center for Vaccines & Immunity, the Research Institute at Nationwide Children's Hospital in Columbus, Ohio. To generate subgenomic RSV replicon, three glycoprotein genes, those for SH, G, and F, from a full-length recombinant GFP-expressing (rg) RSV antigenomic cDNA were deleted. In their place, a blasticidin S deaminase (bsd) gene was inserted. Through multiple steps, the RSV replicon was established in HeLa cells. The 395 HeLa cells were cultured in Dulbecco's Modified Eagle Medium (DMEM) containing 4500 mg/L D-glucose, L-glutamine, and 110 mg/L sodium pyruvate (Invitrogen, Cat. #11995-040). The medium was further supplemented with 10% (v/v) fetal bovine serum (FBS) (Mediatech, Cat. #35-010-CV), 1% (v/v) penicillin/streptomycin (Mediatech, Cat. #30-002-CI), and 10 μg/mL of Blasticidin (BSD) (Invivogen, Cat. code ant-b1-1). Cells were maintained at 37° C. in a humidified 5% CO2 atmosphere.
Determination of 50% inhibitory concentration […], 90% inhibitory concentration (C90) and 50% cytotoxic concentration […] in RSV replicon cells were performed by the following procedure. […]
The Renilla Luciferase Assay System (Promega, Cat. #E2820) was used to measure anti-RSV replicon activity. […] Luminescence was recorded using a Perkin Elmer multilabel counter Victor3V.

[2H]C([2H])(OC(=O)C(C)C)[C@@]1(CCl)O[C@@H](n2ccc(N)nc2=O)[C@H](F)[C@@H]1OC(=O)C(C)C [Compound 31]
EC50: < 1000 nM
